How the values were obtained:
[1] = test system: HBV replication in HepAD38 cells; assay: Anti-HBV replication assay in HepAD38 cells (QPCR of extracellular HBV DNA); format: cell-based, HBV (genotype D, serotype ayw); conditions: Hepatitis B virus, 168 h, 7 days incubation, extracellular HBV DNA by QPCR, read-out: Anti-HBV EC50
How it was run: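 Read-out is QPCR of HBV DNA released into culture supernatant, converted to percent of vehicle control and fitted to give EC50. Cells were HepAD38 induced by tetracycline removal and dosed […] for 7 days.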

[2] = In vitro cytotoxicity assay (MTT cell viability) in HepG2 cells; format: cell-based, human; conditions: human
How it was run: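 Viability measured by MTT conversion, absorbance at 492 nm, as percent of vehicle-treated wells. Compounds spanned 30 μM to 1.0 nM in half-log steps over a 7-day exposure of parental HepG2 cells; CC50 derived by 4-parameter curve fit.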

Row | SMILES | EC50 [1] [nM] | CC50 at 7 days [2] [µM]
1 | Cc1cc(NC(=O)c2c(C)c(C(=O)C(=O)NC3(C(N)=O)CCCC3)n(C)c2C)ccc1F [Example 38, 5-(2-((1-carbamoylcyclopentyl)amino)-2-oxoacetyl)-N-(4-fluoro-3-methylphenyl)-1,2,4-trimethyl-1H-pyrrole-3-carboxamide] | < 50 | > 30
2 | COC(=O)[C@H](NC(=O)C(=O)c1c(C)c(C(=O)Nc2ccc(F)c(C)c2)c(C)n1C)C(C)(C)C [Example 24, methyl (R)-2-(2-(4-((4-fluoro-3-methylphenyl)carbamoyl)-1,3,5-trimethyl-1H-pyrrol-2-yl)-2-oxoacetamido)-3,3-dimethylbutanoate] | < 50 | > 30
3 | CC[C@H](C)NC(=O)C(=O)c1c(C)c(C(=O)Nc2cnc(F)c(C)c2)c2n1CCCC2 [Example 475, (S)-3-(2-(sec-butylamino)-2-oxoacetyl)-N-(6-fluoro-5-methylpyridin-3-yl)-2-methyl-5,6,7,8-tetrahydroindolizine-1-carboxamide] | 500 to 1000 | > 30
4 | Cc1nnc(C2(NC(=O)C(=O)c3c(C)c(C(=O)Nc4ccc(F)c(C)c4)c(C)n3C)CC2)o1 [Example 182, N-(4-fluoro-3-methylphenyl)-1,2,4-trimethyl-5-(2-((1-(5-methyl-1,3,4-oxadiazol-2-yl)cyclopropyl)amino)-2-oxoacetyl)-1H-pyrrole-3-carboxamide] | < 50 | > 30
5 | Cc1cc(NC(=O)c2c(Cl)c(C(=O)C(=O)N[C@H](C)C(F)(F)F)n3c2CCC3)cnc1F [Example 576, (R)-6-chloro-N-(6-fluoro-5-methylpyridin-3-yl)-5-(2-oxo-2-((1,1,1-trifluoropropan-2-yl)amino)acetyl)-2,3-dihydro-1H-pyrrolizine-7-carboxamide] | 50 to 499 | 5 to 30
6 | Cc1cc(NC(=O)c2c(C)c(C(=O)C(=O)NCCn3ccnc3)n(C)c2C)ccc1F [Example 346, 5-(2-((2-(1H-imidazol-1-yl)ethyl)amino)-2-oxoacetyl)-N-(4-fluoro-3-methylphenyl)-1,2,4-trimethyl-1H-pyrrole-3-carboxamide] | < 50 | > 30
7 | Cc1c(C(=O)Nc2cccc(Cl)c2)c(C)n(C)c1C(=O)C(=O)NC(C)(C)CO [Example 600, N-(3-chlorophenyl)-5-(2-((1-hydroxy-2-methylpropan-2-yl)amino)-2-oxoacetyl)-1,2,4-trimethyl-1H-pyrrole-3-carboxamide] | < 50 | > 30
8 | Cc1noc([C@H](NC(=O)C(=O)c2c(C)c(C(=O)Nc3ccc(F)c(C)c3)c(C)n2C)C(C)C)n1 [Example 144, (R)-N-(4-fluoro-3-methylphenyl)-1,2,4-trimethyl-5-(2-((2-methyl-1-(3-methyl-1,2,4-oxadiazol-5-yl)propyl)amino)-2-oxoacetyl)-1H-pyrrole-3-carboxamide] | < 50 | > 30
9 | Cc1cc(NC(=O)c2c(C)c(C(=O)C(=O)Nc3ccccn3)n(C)c2C)ccc1F [Example 276, N-(4-fluoro-3-methylphenyl)-1,2,4-trimethyl-5-(2-oxo-2-(pyridin-2-ylamino)acetyl)-1H-pyrrole-3-carboxamide] | < 50 | > 30
10 | Cc1cc(NC(=O)c2c(C)c(C(=O)C(=O)N[C@H](C(=O)O)C3CCCCC3)n(C)c2C)ccc1F [Example 68, (S)-2-cyclohexyl-2-(2-(4-((4-fluoro-3-methylphenyl)carbamoyl)-1,3,5-trimethyl-1H-pyrrol-2-yl)-2-oxoacetamido)acetic acid] | > 1000 | > 30
11 | Cc1cc(NC(=O)c2c(C)c(C(=O)C(=O)N[C@@H](C(=O)O)C(C)(C)C)n(C)c2C)ccc1F [Example 31, (R)-2-(2-(4-((4-fluoro-3-methylphenyl)carbamoyl)-1,3,5-trimethyl-1H-pyrrol-2-yl)-2-oxoacetamido)-3,3-dimethylbutanoic acid] | 50 to 499 | > 30
12 | Cc1cc(NC(=O)c2c(C)c(C(=O)C(=O)NC3(CO)CC3)n3c2CCCC3)ccc1F [Example 445, N-(4-fluoro-3-methylphenyl)-3-(2-((1-(hydroxymethyl)cyclopropyl)amino)-2-oxoacetyl)-2-methyl-5,6,7,8-tetrahydroindolizine-1-carboxamide] | < 50 | 5 to 30
13 | Cc1cc(NC(=O)c2c(Cl)c(C(=O)C(=O)NCC(C)(C)O)n3c2CCC3)ccc1F [Example 550, 6-chloro-N-(4-fluoro-3-methylphenyl)-5-(2-((2-hydroxy-2-methylpropyl)amino)-2-oxoacetyl)-2,3-dihydro-1H-pyrrolizine-7-carboamide] | < 50 | > 30
14 | CC(C)(CO)NC(=O)C(=O)c1cc(C(=O)Nc2cc(F)c(F)c(F)c2)c2n1CCCC2 [Example 424, 3-(2-((1-hydroxy-2-methylpropan-2-yl)amino)-2-oxoacetyl)-N-(3,4,5-trifluorophenyl)-5,6,7,8-tetrahydroindolizine-1-carboxamide] | 50 to 499 | > 30
15 | Cc1c(C(=O)Nc2ccnc(F)c2)c(C)n(C)c1C(=O)C(=O)NC(C)(C)C(F)(F)F [Example 172, N-(2-fluoropyridin-4-yl)-1,2,4-trimethyl-5-(2-oxo-2-((1,1,1-trifluoro-2-methylpropan-2-yl)amino)acetyl)-1H-pyrrole-3-carboxamide] | < 50 | > 30
16 | Cc1c(C(=O)Nc2ccnc(F)c2)c(C)n(C)c1C(=O)C(=O)NC(C)(C)CO [Example 133, N-(2-fluoropyridin-4-yl)-5-(2-((1-hydroxy-2-methylpropan-2-yl)amino)-2-oxoacetyl)-1,2,4-trimethyl-1H-pyrrole-3-carboxamide] | 50 to 499 | > 30
17 | Cc1cc(NC(=O)c2c(Cl)c(C(=O)C(=O)NC3(CO)CCC3)n3c2CCC3)ccc1F [Example 541, 6-chloro-N-(4-fluoro-3-methylphenyl)-5-(2-((1-(hydroxymethyl)cyclobutyl)amino)-2-oxoacetyl)-2,3-dihydro-1H-pyrrolizine-7-carboxamide] | < 50 | > 30
18 | Cc1noc([C@@H](C)NC(=O)C(=O)c2c(C)c(C(=O)Nc3ccc(F)c(Cl)c3)c3n2CCCC3)n1 [Example 447, (R)-N-(3-chloro-4-fluorophenyl)-2-methyl-3-(2-((1-(3-methyl-1,2,4-oxadiazol-5-yl)ethyl)amino)-2-oxoacetyl)-5,6,7,8-tetrahydroindolizine-1-carboxamide] | < 50 | 5 to 30
19 | Cc1cc(NC(=O)c2c(C)c(C(=O)C(=O)NC3(c4cccs4)CCCCC3)n(C)c2C)ccc1F [Example 633, N-(4-fluoro-3-methylphenyl)-1,2,4-trimethyl-5-(2-oxo-2-((1-(thiophen-2-yl)cyclohexyl)amino)acetyl)-1H-pyrrole-3-carboxamide] | < 50 | > 30
20 | Cc1cc(NC(=O)c2c(C)c(C(=O)C(=O)NCC(C)(C)C)n(C)c2C)ccc1F [Example 64, N-(4-fluoro-3-methylphenyl)-1,2,4-trimethyl-5-(2-(neopentylamino)-2-oxoacetyl)-1H-pyrrole-3-carboxamide] | < 50 | 5 to 30
21 | Cc1noc(C(NC(=O)C(=O)c2c(C)c(C(=O)Nc3ccc(F)c(C)c3)c(C)n2C)C2CCOCC2)n1 (stereo not shown) [Example 85, N-(4-fluoro-3-methylphenyl)-1,2,4-trimethyl-5-(2-(((3-methyl-1,2,4-oxadiazol-5-yl)(tetrahydro-2H-pyran-4-yl)methyl)amino)-2-oxoacetyl)-1H-pyrrole-3-carboxamide] | < 50 | > 30
22 | Cc1cc(NC(=O)c2c(C)c(C(=O)C(=O)N[C@]3(C)CC[C@H](O)CC3)n(C)c2C)ccc1F [Example 228, N-(4-fluoro-3-methylphenyl)-5-(2-(((1s,4s)-4-hydroxy-1-methylcyclohexyl)amino)-2-oxoacetyl)-1,2,4-trimethyl-1H-pyrrole-3-carboxamide] | < 50 | > 30
23 | Cc1cc(NC(=O)c2c(C)c(C(=O)C(=O)NCC3(N)CCCCC3)n(C)c2C)ccc1F [Example 337, 5-(2-(((1-aminocyclohexyl)methyl)amino)-2-oxoacetyl)-N-(4-fluoro-3-methylphenyl)-1,2,4-trimethyl-1H-pyrrole-3-carboxamide] | 500 to 1000 | 5 to 30
24 | Cc1cc(NC(=O)c2c(Cl)c(C(=O)C(=O)NC3(CO)CCC3)n3c2CCCC3)ccc1F [Example 504, 2-chloro-N-(4-fluoro-3-methylphenyl)-3-(2-((1-(hydroxymethyl)cyclobutyl)amino)-2-oxoacetyl)-5,6,7,8-tetrahydroindolizine-1-carboxamide] | < 50 | 5 to 30
25 | Cc1c(C(=O)Nc2ccc(F)c(Cl)c2)c(C)n(C)c1C(=O)C(=O)NC(C)(C)CN1CCOCC1 [Example 332, N-(3-chloro-4-fluorophenyl)-1,2,4-trimethyl-5-(2-((2-methyl-1-morpholinopropan-2-yl)amino)-2-oxoacetyl)-1H-pyrrole-3-carboxamide] | < 50 | > 30
26 | Cc1c(C(=O)Nc2cccc(C(F)F)c2)c(C)n(C)c1C(=O)C(=O)N[C@]1(C)CC[C@@H](O)CC1 [Example 700, N-(3-(difluoromethyl)phenyl)-5-(2-(((1r,4r)-4-hydroxy-1-methylcyclohexyl)amino)-2-oxoacetyl)-1,2,4-rimethyl-1H-pyrrole-3-carboxamide] | < 50 | > 30

Source: patent US20190375708A1 (VenatoRx Pharmaceuticals, Inc., priority 2018, published 2019)
